# Assay results as given in PMC9481563, “Structural insights into the pSer/pThr dependent regulation of the SHP2 tyrosine phosphatase in insulin and CD28 signaling” (Nature Communications, 2022).
# Positions count from the first letter of the chain named.
# Columns and labels:
# Format in all cases: binding
# Details in all cases: competitive FP titration vs CF-ppIRS1 100 nM, protein fixed; n = 3 technical replicates
# [1] = molecular target: T1, inactive SHP2 catalytic domain Loopmut (K364E) (Homo sapiens, UniProt Q06124, C459S/K364E); assay: Fluorescence polarization titrations, SHP2 Loopmut
# T1 construct: SHP2 K364E (Loopmut); 219-528 + C459S; His6 (N); made in house; host or cells: E. coli BL21 (DE3)
# T1 sequence (Q06124 219-528 K364E/C459S): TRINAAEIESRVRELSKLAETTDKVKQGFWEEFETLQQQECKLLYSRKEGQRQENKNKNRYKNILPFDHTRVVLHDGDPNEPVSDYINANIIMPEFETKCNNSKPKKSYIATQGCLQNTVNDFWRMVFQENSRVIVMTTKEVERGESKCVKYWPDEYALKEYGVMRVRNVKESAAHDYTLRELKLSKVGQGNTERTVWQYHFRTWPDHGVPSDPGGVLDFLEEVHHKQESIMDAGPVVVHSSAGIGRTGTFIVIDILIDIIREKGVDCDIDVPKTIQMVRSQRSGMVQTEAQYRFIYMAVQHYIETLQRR
# Excerpt: (§1) The two SH2 domains of PI3KR1 (UniProt P27986; nSH2: 321−433 cSH2: 614–724) were cloned from HEK293T cDNA pool, and subsequently ligated into a modified pET vector encoding maltose binding protein (MBP) tag on the N-terminal and a hexa-His tag on the C-terminal end of the construct. Similarly, the catalytic, tyrosine phosphatase domains of PTPRε (P23469 first domain: 107–399) and PTP1B (P18031; 1–229) were cloned from a HEK293T cDNA pool, and inserted into a pBH4 vector encoding an N-terminal His6 tag (for the final binding experiments, an MBP-tagged version of PTPRε was employed). […] Surface mutants of SHP2 were constructed from the SHP2-C459S plasmid, using the QuickChange protocol. The D425A and H426A catalytic site mutants and all enzymatically active surface mutants were generated similarly, but from the plasmid encoding the wild-type catalytic domain of SHP2. Wild-type C-terminal FLAG-tagged human IRS1 was cloned between HindIII-NotI sites of pcDNA3.1(+) vector (#V79020 Invitrogen, Waltham MA USA). Ser/Ala mutant IRS1 was generated by replacing the region of S616/S636/S666/S736 positions with a cassette carrying S616A/S636A/S666A/S736A mutations. All constructs were validated by complete Sanger sequencing before protein expression and purification. The oligonucleotide sequences used are shown on Supplementary table 4.
# (§2) Fluorescence polarization (FP) assays were performed as follows: In direct titration experiments, protein concentration was varied in an 1/2 or 2/3 dilution series (90 µl protein+ 45 µl mix), while concentration of the reporter peptide (CF-ppIRS1) was kept constant at 100 nM. In competitive titrations, the labelled CF-ppIRS1 peptide and protein were both fixed (at 50–80% saturation) and the unlabelled competitor peptide concentration was varied. Fluorescence polarization was always measured in triplicates, on black Corning low volume round bottom 384-well plates (with 10 ul volumes), using a BioTek Cytatation 5 reader, with the green fluorescent protein (GFP) cube filter set (ex: 485/20, em: 528/20, gain: 50, height: 7.5). Fluorescence polarization data was evaluated on Origin 2018. The dissociation constants (Kd) were determined by using the appropriate quadratic and cubic equations inserted as a user-defined function and applying nonlinear fit until convergence. The fitting formulae are shown at Supplementary note 1. Kd ratio distributions for Fig. 6 were calculated using a Monte-Carlo approach (Supplementary note 2).
# (§3) Supplementary note 1. Curve fitting of fluorescence polarization (FP) measurements.
# (§4) To evaluate polarization values from direct and competitive titrations, we used the following fitting formulae in Origin 2018, as detailed below.
# (§5) Direct titration curves were fitted according to the following formula: […]
# (§6) Where Imin is the minimal anisotropy, Imax is the (asymptotically estimated) maximal intensity. K0 is the starting concentration of the protein, while T0 is the (fixed) concentration of the labelled peptide and Kd is the dissociation constant.
# (§7) Competitive titration curves were fitted with a different formula (In addition to those defined above, constants KdT KdB B0 T0 and D0 here refer to the Kd derived from the direct titration, the unknown Kd of the analyte, the labelled peptide concentration, the competitor peptide concentration as well as the protein concentration, respectively).
# (§8) The ± sign refers to two different scenarios, depending on the sign of discriminant (KdT > KdB or […]). For unknown analytes, the choice of sign is not arbitrary, as the fitting will not converge unless the appropriate formula is chosen: […]
# (§9) Where A, B and C correspond to the following expressions: […]
# [2] = molecular target: T2, inactive SHP2 catalytic domain Hillmut (K274E) (Homo sapiens, UniProt Q06124, C459S/K274E); assay: Fluorescence polarization titrations, SHP2 Hillmut
# T2 construct: SHP2 K274E (Hillmut); 219-528 + C459S; His6 (N); made in house; host or cells: E. coli BL21 (DE3)
# T2 sequence (Q06124 219-528 K274E/C459S): T1 sequence (Q06124 219-528 K364E/C459S) with K56E, E146K
# Excerpt: as §1, §2, §3, §4, §5, §6, §7, §8, §9
# [3] = molecular target: T3, inactive SHP2 catalytic domain Flapmut (H426F) (Homo sapiens, UniProt Q06124, C459S/H426F); assay: Fluorescence polarization titrations, SHP2 Flapmut
# T3 construct: SHP2 H425F (Flapmut); 219-528 + C459S; His6 (N); made in house; host or cells: E. coli BL21 (DE3)
# T3 sequence (Q06124 219-528 H426F/C459S): T1 sequence (Q06124 219-528 K364E/C459S) with E146K, H208F
# Excerpt: as §1, §2, §3, §4, §5, §6, §7, §8, §9
Compound,Kd [1],Kd [2],Kd [3],Kd (competitive titration) [1]
CSCC[C@H](NC(=O)[C@H](Cc1ccc(OP(=O)(O)O)cc1)NC(=O)[C@H](CC(=O)O)NC(=O)[C@H](CO)NC(=O)[C@H](Cc1c[nH]cn1)NC(=O)[C@H](CC(C)C)NC(=O)[C@H](CC(C)C)NC(=O)[C@H](CCCNC(=N)N)NC(=O)[C@H](CO)NC(=O)[C@@H](N)CCCNC(=N)N)C(=O)N[C@@H](CC(N)=O)C(=O)N[C@@H](CCSC)C(=O)N[C@H](C(=O)N1CCC[C@H]1C(=O)N[C@@H](CCCNC(=N)N)C(=O)N[C@@H](CCCNC(=N)N)C(=O)O)[C@@H](C)O [p0CD28],20.5 ± 1.53 µM,54.6 ± 5.12 µM,63.7 ± 3.1 µM,
CSCC[C@H](NC(=O)[C@@H]1CCCN1C(=O)[C@H](CCSC)NC(=O)[C@H](Cc1ccc(OP(=O)(O)O)cc1)NC(=O)[C@H](CC(=O)O)NC(=O)CNC(=O)[C@H](CO)NC(=O)CNC(=O)[C@H](CCCCN)NC(=O)[C@H](CCCNC(=N)N)NC(=O)CN)C(=O)N[C@@H](CO)C(=O)N1CCC[C@H]1C(=O)N[C@@H](CCCCN)C(=O)N[C@@H](CO)C(=O)O [p0IRS1],23.3 ± 0.9 µM,83.9 ± 2.58 µM,172 ± 4.89 µM,bound stronger
CC[C@H](C)[C@H](NC(=O)[C@H](CC(N)=O)NC(=O)[C@@H](NC(=O)[C@H](Cc1ccc(OP(=O)(O)O)cc1)NC(=O)[C@H](CCC(=O)O)NC(=O)CNC(=O)[C@@H]1CCCN1C(=O)[C@H](CO)NC(=O)[C@H](CCCCN)NC(=O)[C@@H]1CCCN1C(=O)[C@@H](N)CCC(=O)O)C(C)C)C(=O)N[C@@H](CCC(=O)O)C(=O)N[C@@H](Cc1ccccc1)C(=O)O [p0SRev-IRS1],7.73 ± 1.08 µM,14.8 ± 0.88 µM,6.05 ± 0.29 µM,
CSCC[C@H](NC(=O)[C@H](Cc1ccc(OP(=O)(O)O)cc1)NC(=O)[C@H](CC(=O)O)NC(=O)[C@H](CO)NC(=O)[C@H](Cc1c[nH]cn1)NC(=O)[C@H](CC(C)C)NC(=O)[C@H](CC(C)C)NC(=O)[C@H](CCCNC(=N)N)NC(=O)[C@H](CO)NC(=O)[C@@H](N)CCCNC(=N)N)C(=O)N[C@@H](CC(N)=O)C(=O)N[C@@H](CCSC)C(=O)N[C@H](C(=O)N1CCC[C@H]1C(=O)N[C@@H](CCCNC(=N)N)C(=O)N[C@@H](CCCNC(=N)N)C(=O)O)[C@@H](C)OP(=O)(O)O [ppCD28],6.66 ± 0.38 µM,11 ± 0.57 µM,9.96 ± 0.47 µM,
CSCC[C@H](NC(=O)[C@@H]1CCCN1C(=O)[C@H](CCSC)NC(=O)[C@H](Cc1ccc(OP(=O)(O)O)cc1)NC(=O)[C@H](CC(=O)O)NC(=O)CNC(=O)[C@H](CO)NC(=O)CNC(=O)[C@H](CCCCN)NC(=O)[C@H](CCCNC(=N)N)NC(=O)CN)C(=O)N[C@@H](COP(=O)(O)O)C(=O)N1CCC[C@H]1C(=O)N[C@@H](CCCCN)C(=O)N[C@@H](CO)C(=O)O [ppIRS1],3.01 ± 0.42 µM,2.23 ± 0.14 µM,3.89 ± 0.19 µM,bound stronger
CC[C@H](C)[C@H](NC(=O)[C@H](CC(N)=O)NC(=O)[C@@H](NC(=O)[C@H](Cc1ccc(OP(=O)(O)O)cc1)NC(=O)[C@H](CCC(=O)O)NC(=O)CNC(=O)[C@@H]1CCCN1C(=O)[C@H](COP(=O)(O)O)NC(=O)[C@H](CCCCN)NC(=O)[C@@H]1CCCN1C(=O)[C@@H](N)CCC(=O)O)C(C)C)C(=O)N[C@@H](CCC(=O)O)C(=O)N[C@@H](Cc1ccccc1)C(=O)O [ppSRev-IRS1],0.99 ± 0.07 µM,2.56 ± 0.28 µM,0.54 ± 0.03 µM,
